Test results published in patent US8569372B2, “Method for preventing or treating a disease, disorder or condition induced by retina ischemia” (priority 2011, dated 2013).

Experiments:
[1] = tested on: ischaemic retina (HIOP induced retinal ischaemia/reperfusion); experiment: Flash ERG b-wave after high IOP induced retinal ischaemia/reperfusion, intravitreous pre-treatment; assay type: in vivo, Wistar rats; details: for ERG b-wave ratio (ischaemic eye vs. fellow normal eye): n=6; for pre-ischaemia b-wave ratio baseline (day 0): day 0 baseline
Experimental: All investigations involving the use of animals conformed to the Association for Research in Vision and Ophthalmology Statement for the Use of Animals in Ophthalmology and Vision Research and were approved by the Institutional Review Board of Cheng Hsin General Hospital (Taipei, Taiwan). The six-week-old Wistar rats were kept in an animal house where the humidity was 40-60% and the temperature 19-23° C. They were kept on a 12-hour light/dark cycle with 12 to 15 air changes/hour. The animals were provided with food and water ad libitum.
The rats (200-250 g) were anaesthetized and placed in a stereotaxic frame. The anterior chamber of one eye was cannulated with a 30-gauge needle connected to a 0.9% saline reservoir; this caused a high IOP (HIOP) of 120 mmHg for 60 minutes. Eye fundus whitening and a low ERG response confirmed induction of an ischaemic insult. A sham procedure was carried out on the controls.
Drug administration involved the pre-administration (15-minute before 60-minute HIOP induced retinal ischaemia) of SAC (25, 50, 100 μM) or vehicle (saline; control). The ischemic eye of each test rat was treated with or without a single intravitreous injection of 5 μl of the test compound. In addition, SAC (100 μM) was administered to the non-ischaemic eye (normal) to see whether SAC has any adverse effects. In both cases, the paired normal eye was untreated.
Flash ERG recordings were performed on all rats before retinal ischaemia (day 0), as well as at 1, 3, 5, and 7 days after ischaemia and treatment with or without the defined chemicals. The animals were dark adapted and anaesthetized to do this. A strobe was placed 2 cm in front of the animal to provide a stimulus of 0.5 Hz. Fifteen consecutive responses were recorded at two-second intervals and at 10 kHz; the responses were amplified and averaged using an amplifier P511/regulated power supply RPS 107/stimulator PS22 (Grass-Telefactor; Astro-Med Inc., West Warwick, R.I., USA). For comparative purposes, the b-wave ratio, namely the b-wave amplitude of the ischaemic/sham-operation eye or the untreated/SAC-treated non-ischaemic (normal) eye as compared with that of the contralateral normal eye, was calculated.

HIF-1 Alpha = experiment: ELISA of HIF-1 Alpha protein in RGC-5 cells under H2O2 oxidative stress; assay type: cell-based; details: 100 μM SAC 15-minute pre-treatment, 500 μM H2O2 24 hours; control 1254.39±116.03, H2O2 1874.72±133.46; n=6
Experimental: In the enzyme-linked immunosorbent assay (ELISA), the cells (2.5×10^4 in each well) were plated into 96-well plates. Each well contains 200 μl of DMEM (control) without or with H2O2. Next, the cells were incubated at 37° C. for 1 day and then shifted to serum free medium for the following day. In order to stimulate oxidative stress, 500 μM H2O2 (Sigma-Aldrich 18304/k0250, St Louis, Mo., USA) was then added for 24 hours as described elsewhere. Depending on the experimental protocol, SAC or vehicle was added to some samples 15 minutes before adding H2O2. […] Total protein was determined using a bicinchoninic acid protein kit (Thermo Fisher Scientific Inc., IL, U.S.A.). The HIF-1 Alpha/VEGF/MMP-9 levels in the cells/medium were measured using various ELISA kits, namely HIF-1 Alpha (Uscn Life Science Inc., Wuhan 430056, China); VEGF-A (BMS277/2, Bender […], Austria) and MMP-9 Duoset (D911, R&D, Minneapolis, Minn., U.S.A.). […] The HIF-1 Alpha/VEGF/MMP-9 concentration of each sample was determined by constructing a standard curve using 100 μl of sample diluent containing various amounts of HIF-1 Alpha/VEGF/MMP-9 pure protein (0-1000 pg/ml). […] The absorbance (optical intensity, O.D.) was detected at 450 nm by spectrophotometer (ELx800, Biotek, Winooski, Vt., U.S.A.). […]

ERG b-wave ratio (ischaemic eye vs. fellow normal eye) ([1]; 25 μM SAC, day 1 after I/R, vehicle 0.19±0.03): 0.47±0.10
ERG b-wave ratio (ischaemic eye vs. fellow normal eye) ([1]; 25 μM SAC, day 3 after I/R, vehicle 0.18±0.05): 0.44±0.11
ERG b-wave ratio (ischaemic eye vs. fellow normal eye) ([1]; 25 μM SAC, day 5 after I/R, vehicle 0.24±0.05): 0.54±0.09
ERG b-wave ratio (ischaemic eye vs. fellow normal eye) ([1]; 25 μM SAC, day 7 after I/R, vehicle 0.18±0.02): 0.55±0.06
ERG b-wave ratio (ischaemic eye vs. fellow normal eye) ([1]; 50 μM SAC, day 1 after I/R, vehicle 0.19±0.03): 0.56±0.03
ERG b-wave ratio (ischaemic eye vs. fellow normal eye) ([1]; 50 μM SAC, day 3 after I/R, vehicle 0.18±0.05): 0.60±0.05
ERG b-wave ratio (ischaemic eye vs. fellow normal eye) ([1]; 50 μM SAC, day 5 after I/R, vehicle 0.24±0.05): 0.65±0.02
ERG b-wave ratio (ischaemic eye vs. fellow normal eye) ([1]; 50 μM SAC, day 7 after I/R, vehicle 0.18±0.02): 0.61±0.05
ERG b-wave amplitude ([1]; 100 μM SAC intravitreous pre-treatment, 1 day after I/R, sham control 0.35 mV, vehicle 0.08 mV): 0.24 mV
ERG b-wave amplitude, % of the control value ([1]; 100 μM SAC pre-treatment, 1 day after I/R, vehicle 22.86%): 68.57 % of the control value
ERG b-wave ratio (ischaemic eye vs. fellow normal eye) ([1]; 100 μM SAC, day 1 after I/R, vehicle 0.19±0.03): 0.64±0.04
ERG b-wave ratio (ischaemic eye vs. fellow normal eye) ([1]; 100 μM SAC, day 3 after I/R, vehicle 0.18±0.05): 0.79±0.03
ERG b-wave ratio (ischaemic eye vs. fellow normal eye) ([1]; 100 μM SAC, day 5 after I/R, vehicle 0.24±0.05): 0.84±0.03
ERG b-wave ratio (ischaemic eye vs. fellow normal eye) ([1]; 100 μM SAC, day 7 after I/R, vehicle 0.18±0.02): 0.84±0.04
pre-ischaemia b-wave ratio baseline (day 0) ([1]; group pre-treated with 25 μM SAC): 1.08±0.07
pre-ischaemia b-wave ratio baseline (day 0) ([1]; group pre-treated with 50 μM SAC): 0.98±0.04
pre-ischaemia b-wave ratio baseline (day 0) ([1]; group pre-treated with 100 μM SAC): 0.92±0.04
Structure (SMILES): C=CCSC[C@H](N)C(=O)O [SAC, S-allyl L-cysteine]
HIF-1 Alpha protein level (ELISA) (HIF-1 Alpha): 1256.47 ± 157.62 pg/mL
